Measured values published in US8575144B2, “Beta-lactamase inhibitory compounds” (Southern Methodist University, priority 2008, dated 2013).

Legend:
[1] = test system: Resistant P. aeruginosa; assay: Synergy of inhibitors with imipenem against resistant P. aeruginosa; format: cell-based
Excerpt: (§1) Tables 2 and 3 show the effectiveness of inhibitory compounds of the invention in killing resistant bacterial strains with imipenem, a β-lactam antibiotic.

[2] = test system: Resistant A. baumannii; assay: Synergy of inhibitors with imipenem against resistant A. baumannii; format: cell-based
Excerpt: as §1

[3] = molecular target: TEM-1 β-lactamase (Escherichia coli, UniProt P62593); assay: Inhibition of representative β-lactamases: TEM-1; format: biochemical; details: read-out: IC50 TEM-1 E. Coli
Sequence of TEM-1 β-lactamase (P62593 24-286 limits assumed): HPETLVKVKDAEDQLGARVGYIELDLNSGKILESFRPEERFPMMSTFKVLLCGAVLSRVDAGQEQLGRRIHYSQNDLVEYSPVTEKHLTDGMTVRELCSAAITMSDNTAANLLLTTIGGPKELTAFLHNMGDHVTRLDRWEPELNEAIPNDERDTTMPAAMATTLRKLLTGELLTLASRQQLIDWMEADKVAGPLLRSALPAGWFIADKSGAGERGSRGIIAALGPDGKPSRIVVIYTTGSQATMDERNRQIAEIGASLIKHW

[4] = molecular target: T1, AmpC β-lactamase (Pseudomonas aeruginosa, UniProt P24735); assay: Inhibition of representative β-lactamases: AmpC P. aeruginosa; format: biochemical
T1 sequence (P24735 27-397): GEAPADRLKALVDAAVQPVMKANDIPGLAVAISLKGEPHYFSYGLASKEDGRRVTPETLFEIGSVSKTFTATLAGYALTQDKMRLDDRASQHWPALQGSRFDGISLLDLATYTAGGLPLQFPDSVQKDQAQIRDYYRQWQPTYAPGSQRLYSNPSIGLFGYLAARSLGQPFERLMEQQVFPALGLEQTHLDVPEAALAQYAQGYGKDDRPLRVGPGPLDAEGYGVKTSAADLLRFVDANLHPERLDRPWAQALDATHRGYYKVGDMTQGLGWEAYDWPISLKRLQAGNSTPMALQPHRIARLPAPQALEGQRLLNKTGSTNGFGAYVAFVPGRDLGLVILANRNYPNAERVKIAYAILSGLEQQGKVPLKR

[5] = molecular target: AmpC β-lactamase; details: read-out: IC50 AmpC A. baumannii
Excerpt: Methods for testing the β-lactamase inhibitory bioactivity of compounds are well known in the art. For example, see T. Viswanantha, et al. (2008), “Assays for β-lactamase Activity and Inhibition,”, Methods in Molecular Medicine, 142: New Antibiotic Targets, Chapter 19, pp. 239-260, and references cited therein.

[6] = molecular target: OXA-40 β-lactamase (Acinetobacter baumannii, UniProt Q8RLA6); format: biochemical
Sequence of OXA-40 β-lactamase (Q8RLA6 22-275): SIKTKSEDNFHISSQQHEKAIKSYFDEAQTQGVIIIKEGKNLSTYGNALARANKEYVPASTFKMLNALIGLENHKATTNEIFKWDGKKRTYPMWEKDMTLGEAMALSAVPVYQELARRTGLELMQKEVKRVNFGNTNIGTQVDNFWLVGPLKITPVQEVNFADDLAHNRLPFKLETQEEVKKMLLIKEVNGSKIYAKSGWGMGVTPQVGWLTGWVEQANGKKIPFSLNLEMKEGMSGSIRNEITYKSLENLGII

[7] = molecular target: T1, AmpC β-lactamase; assay: Inhibition of representative β-lactamases: AmpC P. aeruginosa in serum; format: biochemical

Row | MIC ([1]; Pseudomonas aeruginosa, imipenem alone, no inhibitor) | MIC ([2]; Acinetobacter baumannii, imipenem alone, no inhibitor) | SMILES | IC50 [3] | IC50 [4] | IC50 [5] | IC50 [6] | IC50 [7] | Inhibitor concentration with imipenem at 0.0313 MIC ([1]; imipenem 0.625 mg/L (0.0313 MIC)) | Inhibitor concentration with imipenem at 0.0625 MIC ([1]; imipenem 1.25 mg/L (0.0625 MIC)) | Inhibitor concentration with imipenem at 0.125 MIC ([1]; imipenem 2.5 mg/L (0.125 MIC)) | Inhibitor concentration with imipenem at 0.25 MIC ([1]; imipenem 5 mg/L (0.25 MIC)) | Inhibitor concentration with imipenem at 0.5 MIC ([1]; imipenem 10 mg/L (0.5 MIC)) | Inhibitor concentration with imipenem at 0.0313 MIC ([2]; imipenem 8 mg/L (0.0313 MIC)) | Inhibitor concentration with imipenem at 0.0625 MIC ([2]; imipenem 16 mg/L (0.0625 MIC)) | Inhibitor concentration with imipenem at 0.125 MIC ([2]; imipenem 32 mg/L (0.125 MIC)) | Inhibitor concentration with imipenem at 0.25 MIC ([2]; imipenem 64 mg/L (0.25 MIC)) | Inhibitor concentration with imipenem at 0.5 MIC ([2]; imipenem 128 mg/L (0.5 MIC))
1 | 20 mg/L | 256 mg/L | C[C@@H](O)[C@H]1C(=O)N2C(C(=O)O)=C(SCCN=CN)C[C@H]12 [Imipenem, imipenem, reference compound] |  |  |  |  |  |  |  |  |  |  |  |  |  |  | 
2 |  |  | C[C@]1(COC(=O)Cc2ccc(O)c(O)c2)[C@H](C(=O)O)N2C(=O)/C(=C/c3ccccn3)[C@H]2S1(=O)=O [JDB/LN-1-255] | 0.03 nM | 6 nM | 4 nM | 11 nM | 82 nM | >100 mg/L | 100 mg/L | 50 mg/L | 25 mg/L | 6.25 mg/L | >100 mg/L | 100 mg/L | 50 mg/L | 25 mg/L | 6.25 mg/L
